Reference: patent publication US20040044077A1, “Agents for inhibiting or restoring skin damage caused by drying and method for evaluating the same” (priority 2000, published 2004)

Legend:
filaggrin gene = test: Expression level of the filaggrin gene (RT-PCR) in cultured human keratinocytes exposed to a gaseous phase (drying); type: cell-based; details: drying stimulus; for Relative expression level of filaggrin gene (%) Mean: no treatment = 100
Experimental: (§1) Normal keratinocytes of human preputial origin and 3T3 cells of mouse origin were used.
(§2) The culture medium was DMEM-Ham's F12 (3:1) containing hydrocortisone, cholera enterotoxin, epidermal growth factor, insulin and 10% FBS.
(§3) The keratinocytes were cultured according to the method described in Rheinwald et al., Cell, 6, 331-344(1975).
(§4) An outline is given below. 3T3 cells were treated with mitomycin C and used as a feeder layer. Normal human keratinocytes (1×10^5 cells) were inoculated onto mitomycin C-treated 3T3 cells and cultured at 37° C. in a 95% air-5% carbon dioxide environment until they became confluent. They were exposed to a gaseous phase by removing the culture supernatant. Each test substance was added 30 minutes before exposed to a gaseous phase, followed by incubation at 37° C. The culture to which no test sample was added was used as a control. The exposure to a gaseous phase was carried out at 37° C. for 0-6 hours.
After each test substance was added to the aforesaid culture system and the cells were exposed to a gaseous phase for a predetermined period of time, RNA was extracted from the cells according to the AGPC method. This RNA was subjected to RT-PCR in the following manner. A primer specific for fillaggrin was prepared on the basis of the base sequence of filaggrin which is reported in McKinley-Grant L. J. et al., Proc. Natl. Acad. Sci. U.S.A., 86, 4848-4852(1989). In order to assay mRNA for filaggrin, RT-PCR was carried out by converting mRNA to cDNA with the aid of reverse transcriptase. Using this cDNA as a template with the aforesaid primer, a polymerase reaction (a well-known reaction) was carried out. After the PCR product was electrophoresed in agarose gel, the resulting gel was soaked in an ethidium bromide solution and assayed for DNA. The quantitative analysis of DNA bands was carried out with NIH Image (analytical program). A correction was made with the aid of glyceraldehyde-3-phosphate dehydrogenase (G3PDH).
(6-8) The efficacies of other active ingredients and combinations of active ingredients in inhibiting a reduction in the expression of the filaggrin gene in cultured human keratinocytes as induced by drying are shown in Tables 1 and 2 below, respectively. In these tables, the degree to which the addition of a drug inhibited a reduction in gene expression is expressed as a percentage, assuming that the gene expression before drying is 100% and the gene expression after drying is […]. In Table 1, each active ingredient was added at an extract concentration of 0.5%. In Table 2, compositions containing the indicated active ingredient(s) at the indicated concentration(s) (in % by weight) were tested.
The aforesaid recovery rates (%) indicate the degree to which the addition of each test substance restored the expression level of the filaggrin gene as compared with that in the untreated group not exposed to a drying stimulus.

filaggrin protein = test: Amount of filaggrin protein (western blotting) in cultured human keratinocytes exposed to a gaseous phase (drying); type: cell-based; details: culture in the presence of 10% glycerol, FIG. 3
Experimental: as §1, §2, §3, §4
After each test substance was added to the aforesaid culture system and the cells were exposed to a gaseous phase for a predetermined period of time, protein was extracted from the cells. According to a conventional method, filaggrin protein or filaggrin protein precursor (profilaggrin) was determined by western blotting. An outline is given below. […] The quantitative analysis of bands was carried out with NIH Image (analytical program). […]

OCC(O)CO [glycerol]
Recovery rate (%) (filaggrin gene; 0.15% by weight): 7.5% | Relative expression level of filaggrin gene (%) Mean (filaggrin gene; 0.15% by weight): 51% | Recovery rate (%) (filaggrin gene; 0.30% by weight): 60.4% | Relative expression level of filaggrin gene (%) Mean (filaggrin gene; 0.30% by weight): 79% | effect on reduction in filaggrin protein level induced by drying (filaggrin protein): inhibiting a reduction in filaggrin protein level

OC[C@@H](O)[C@H](O)[C@@H](O)CO [xylitol]
Recovery rate (%) (filaggrin gene; 0.15% by weight): 5.7% | Relative expression level of filaggrin gene (%) Mean (filaggrin gene; 0.15% by weight): 50% | Recovery rate (%) (filaggrin gene; 0.30% by weight): 37.7% | Relative expression level of filaggrin gene (%) Mean (filaggrin gene; 0.30% by weight): 67%
